According to US20180028543A1, “HYPOLIPIDEMIC COMPOSITION AND USE THEREOF” (priority 2014, published 2018):

Key:
hyperlipidemia rats [1] = assay: Hypolipidemic animal experiment: blood lipid levels in high-fat feed rats; format: in vivo, SD rats; conditions: serum, positive drug 1.5 mg/kg intragastric, 4 weeks, X ± S, n = 10
Description: 3. […] From the day of experiment, the blank control group and the model control group were intragastrically administered with normal saline (volume: 10 ml/kg), the administration group was intragastrically administered with corresponding drugs once a day, the body weight was weighed once a week, and the dosage was adjusted according to the body weight. The blank control group was fed with the normal feed, the other groups was fed with high-fat feed. During the experiment, free feeding, free drinking, continuous molding and drug administration for prevention were carried out for 4 weeks.
(§1) 4. Observation indexes: after the last administration, the rats fasted for 12 h without fasting water. The rats were anesthetized with 3% pentobarbital sodium, blood was collected from the abdominal aorta, serum was centrifugally separated, and the serum total cholesterol (TC), triglyceride (TG), high-density lipoprotein cholesterol (HDL-C), low-density lipoprotein cholesterol (LDL-C), alanine aminotransferase (ALT) and aspartate aminotransferase (AST) values were measured.

hyperlipidemia rats [2] = assay: Effect on liver function (serum ALT, AST) of high-fat feed rats; format: in vivo, SD rats; conditions: positive drug 1.5 mg/Kg-d, 4 weeks, X ± S, n = 10
From the text: 1. Experimental materials: 150 healthy SD male and female rats in clean grade, with body weight of (150.2±8.9) g.
2. Feed: general feed, high-fat feed formula: 72.7% of basic feed, 2% of cholesterol, 5% of egg yolk powder, 10% of lard, 0.2% of propylthiouracil, 10% of sucrose and 0.1% of sodium cholate.
3. Grouping and administration of animals: the purchased experimental rats were adaptively fed for 1 week in a lab, original numbers were assigned according to the weighing order, and the rats were randomly divided into a blank control group, a model control group, a pharmaceutical composition (respectively prepared as in Examples 3, 6, 8 and 10, and added with 50 ml of water per 10 g to be dissolved to obtain a solution) low-dose group (5 ml/kg·d), a middle-dose group (10 ml/kg-d), a high-dose group (15 ml/kg·d), a positive drug (simvastatin) control group (1.5 mg/kg, volume: 10 ml/kg) by looking up a random number table, and there were 10 rats in each group. […]
as §1, with “Observation indexes: after the last administration, the rats fasted for 12 h without fasting water.” left out, “measured. […]” for “measured.”

`CCC(C)(C)C(=O)O[C@H]1C[C@@H](C)C=C2C=C[C@H](C)[C@H](CC[C@@H]3C[C@@H](O)CC(=O)O3)[C@H]21` [Positive drug, simvastatin] was tested, and the HDL-C (hyperlipidemia rats [1]) was 1.23 ± 0.17 mmol/L, the LDL-C (hyperlipidemia rats [1]) was 1.68 ± 1.91 mmol/L and the TC (hyperlipidemia rats [1]) was 8.42 ± 4.79 mmol/L. For the same compound, the TG (hyperlipidemia rats [1]) was 0.49 ± 0.18 mmol/L, the ALT (hyperlipidemia rats [2]) was 45.85 ± 5.21 U/L and the AST (hyperlipidemia rats [2]) was 22.32 ± 7.56 U/L.
